Source: the supplement of paper PMC10307832

Legend:
Assay in all cases: relative viability (nuclei count vs DMSO), 5 days (fraction); higher = more cells survive
GW-2580 + Pictilisib = compound: COC1=CC=C(C=C1)COC2=C(C=C(C=C2)CC3=CN=C(N=C3N)N)OC [GW-2580] + CS(=O)(=O)N1CCN(Cc2cc3nc(-c4cccc5[nH]ncc45)nc(N4CCOCC4)c3s2)CC1 [Pictilisib] (partner 1 µM)
How it was run: (§1)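 Relative viability was taken as the ratio of nuclei in treated wells to nuclei in vehicle wells. Lung cancer cell lines in 1536-well plates received compounds by pin tool one day after seeding, either one drug alone or a fixed anchor-drug dose plus five library-drug doses (not always all listed) in √10 steps. Nuclei were counted on 4× images after 5 days of treatment, and values are medians of duplicate plates.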

Fedratinib + Alpelisib = compound: Cc1cnc(Nc2ccc(OCCN3CCCC3)cc2)nc1Nc1cccc(S(=O)(=O)NC(C)(C)C)c1 [Fedratinib] + Cc1nc(NC(=O)N2CCC[C@H]2C(N)=O)sc1-c1ccnc(C(C)(C)C(F)(F)F)c1 [Alpelisib] (partner 2 µM)
How it was run: as §1

GW-2580 + Phenformin = compound: COC1=CC=C(C=C1)COC2=C(C=C(C=C2)CC3=CN=C(N=C3N)N)OC [GW-2580] + N=C(N)NC(=N)NCCc1ccccc1 [Phenformin] (partner 250 µM)
How it was run: as §1

Fedratinib + Luminespib = compound: Cc1cnc(Nc2ccc(OCCN3CCCC3)cc2)nc1Nc1cccc(S(=O)(=O)NC(C)(C)C)c1 [Fedratinib] + CCNC(=O)c1noc(-c2cc(C(C)C)c(O)cc2O)c1-c1ccc(CN2CCOCC2)cc1 [Luminespib] (partner 0.01 µM)
How it was run: as §1

GW-2580 + Navitoclax = compound: COC1=CC=C(C=C1)COC2=C(C=C(C=C2)CC3=CN=C(N=C3N)N)OC [GW-2580] + CC1(C)CCC(c2ccc(Cl)cc2)=C(CN2CCN(c3ccc(C(=O)NS(=O)(=O)c4ccc(N[C@H](CCN5CCOCC5)CSc5ccccc5)c(S(=O)(=O)C(F)(F)F)c4)cc3)CC2)C1 [Navitoclax] (partner 0.5 µM)
How it was run: as §1

Cell Line | relative viability (GW-2580 + Pictilisib; first compound 0.08 µM) | relative viability (GW-2580 + Pictilisib; first compound 0.8 µM) | relative viability (GW-2580 + Pictilisib; first compound 2.53 µM) | relative viability (GW-2580 + Pictilisib; first compound 8 µM) | relative viability (Fedratinib + Alpelisib; first compound 0.1 µM) | relative viability (Fedratinib + Alpelisib; first compound 0.3162 µM) | relative viability (Fedratinib + Alpelisib; first compound 1 µM) | relative viability (GW-2580 + Phenformin; first compound 0.08 µM) | relative viability (GW-2580 + Phenformin; first compound 0.8 µM) | relative viability (GW-2580 + Phenformin; first compound 2.53 µM) | relative viability (GW-2580 + Phenformin; first compound 8 µM) | relative viability (Fedratinib + Luminespib; first compound 0.1 µM) | relative viability (Fedratinib + Luminespib; first compound 0.3162 µM) | relative viability (Fedratinib + Luminespib; first compound 1 µM) | relative viability (GW-2580 + Navitoclax; first compound 0.08 µM) | relative viability (GW-2580 + Navitoclax; first compound 0.8 µM) | relative viability (GW-2580 + Navitoclax; first compound 2.53 µM) | relative viability (GW-2580 + Navitoclax; first compound 8 µM)
RERF-LC-KJ | 0.553 | 0.404 | 0.478 | 0.515 | 0.792 | 0.86 | 0.756 | 0.435 | 0.418 | 0.445 | 0.395 | 1.13 | 1.24 | 1.17 | 0.871 | 1.04 | 1.13 | 0.995
SK-LU-1 | 0.621 | 0.63 | 0.461 | 0.557 | – | 0.93 | 0.701 | 0.559 | 0.731 | 0.383 | 0.537 | 0.181 | 0.19 | 0.16 | 0.869 | 0.85 | 1.06 | 1.05
SK-MES-1 | 0.34 | 0.381 | 0.355 | 0.324 | 0.909 | 0.829 | 0.809 | 0.748 | 0.608 | 0.515 | 0.528 | 0.741 | 0.773 | 0.609 | 1.4 | 1.18 | 1.1 | 1.33
SW 1573 | 0.442 | 0.613 | 0.542 | 0.536 | 0.813 | 0.867 | 0.703 | 0.334 | 0.383 | 0.401 | 0.4 | 0.548 | 0.26 | 0.145 | 1 | 1.04 | 0.869 | 0.929
